Assay results as given in patent US10487115B2, “Proteinaceous compounds and uses therefor” (UNIVERSITY OF CANBERRA, priority 2016, dated 2019).
Ends that are not written are not given here. * marks the point of attachment. Myristoyl = CCCCCCCCCCCCCC(=O)*

Assays:
PKC-θ [1] = target: T1, PKC-θ (Homo sapiens, UniProt Q04759); test: Nuclear localization of PKC-θ (PKC-θ-phosphor-T538 antibody) in MCF7 cells treated with peptide inhibitors of other PKC isoforms; assay type: cell-based; settings: 50 μM peptide inhibitor 24 hr, PMA 0.65 ng/mL 60 hr, N-myristoylated
T1 construct: endogenous in cells; host or cells: MCF7
Experimental: nPKC-β1, nPKC-ε and nPKC-δ peptide inhibitors were designed based on the nuclear localization signal of PKC-β1, PKC-ε and PKC-δ respectively. These peptides were synthesized and N-myristoylated using the method of Example 1.
MCF7 cells were pre-seeded overnight on sterile coverslips in 12 well plates with 1 mL of completed DMEM before inhibiting with 50 μM of nPKC-β1, nPKC-ε or nPKC-δ peptide inhibitor respectively for 24 hr. Inhibitors were not removed when MCF7 cells were stimulated with 0.65 ng/mL of PMA for 60 hr. DEPC-water was used for control (test peptides were dissolved in sterile DEPC-water). After washing with DPBS twice, samples on coverslips were fixed with 4% paraformaldehyde for 10 minutes and stained with PKC-θ-phosphor-T538 primary Antibody and conjugated Alexa-488 secondary Antibody. Cell nucleus was stained with anti-fade DAPI. When samples were dried overnight, Nikon fluorescence microscopy was used to take photos. ImageJ software was used for densimetric analysis. Fn/c was calculated using the formula: Fn/c=(nuclear density-background density)/(cytoplasmic density-background density).

MDA-MB-231 cells = test: CD44hiCD24lo cancer stem cells in MDA-MB-231 model (FACS); assay type: cell-based, human; settings: 50 μM or 100 μM importinib4759, 48 hr, p<0.0001 relative to control
Experimental: (§1) 5×10^4 MDA-MB-231 cells were seeded with 1 mL of complete DMEM in 12 well plates overnight, then importinib4759 (5004 and 100 μM; synthesized in accordance with Example 1) or importinib4759_O1 (2504 and 50 μM; synthesized in accordance with Example 1) were used to treat cells for 48 hr before samples were harvested by trypsinization followed by washing with DPBS containing 2% HI-FBS. FACS staining was performed using anti-human CD44-APC, anti-human CD24-PE, Hoechst, and anti-human EpCAM antibody cocktails. Data was collected from BD FACSLSR-II flow cytometer. Treestar FlowJo was used for data analysis.

MDA-MB-231 xenograft = test: Balb/c-nude MDA-MB-231 xenograft breast cancer model: tumor volume and cancer stem cell proportion; assay type: in vivo, balb/c-nude mice
Experimental: A Balb/c-nude MDA-MB-231 xenograft breast cancer model was utilized to determine the effect of the importinib peptides alone and in combination with the chemotherapeutic, docetaxel in comparison to a randomized peptide control.
Five week old balb/c-nude mice (n=5 per test compound) were injected with MDA-MB-231 human breast carcinoma cell suspensions (2×10^6 cells in 25 μL PBS mixed with 25 μL of BD Matrigel Matrix) subcutaneously into the right mammary gland. Test compounds in a saline vehicle [4 mg/kg docetaxel; 8 mg/kg, 40 mg/kg and 60 mg/kg importinib4759 or importinib4759_O1 (synthesized in accordance with Example 1); 4 mg/kg docetaxel with 8 mg/kg importinib4759 or importinib4759_O1; 4 mg/kg docetaxel with 40 mg/kg importinib4759 or importinib4759_O1; 4 mg/kg docetaxel with 60 mg/kg importinib4759 or importinib4759_O1; or randomized peptide control] were injected intraperitoneally. Tumor volume was assessed using calipers daily over a period of five weeks following treatment. Animals were sacrificed after the five week period. Tumor grafts were removed using resection and processed into single cell suspensions. The percentage of cancer stem cells was determined using FACS analysis. FACS staining was performed using anti-human CD44-APC, anti-human CD24-PE, Hoechst, and anti-human EpCAM antibody cocktails. Data was collected from BD FACSLSR-II flow cytometer. Treestar FlowJo was used for data analysis. Significance was determined using a one-way ANOVA or Mann-Whitney T-test.

PKC-θ [2] = target: T1, PKC-θ; test: Nuclear translocation of PKC-θ in PMA-stimulated MCF7 cells (immunofluorescence, Fn/c); assay type: cell-based; settings: 50 μM peptide 24 hr, then PMA 0.65 ng/mL 60 hr, N-myristoylated peptides, p<0.0001 relative to control
Experimental: MCF7 cells were pre-seeded overnight on sterile coverslips in 12 well plates with 1 mL of completed Dulbecco's modified eagle medium (DMEM) before incubating with 50 μM of importinib4759 (synthesized in accordance with Example 1) and importinib4759_O1 (synthesized in accordance with Example 1) for 24 hr. Test peptides were not removed when MCF7 cells were stimulated with 0.65 ng/mL of phorbol 12-myristate 13-acetate (PMA) for 60 hr. Diethylpyrocarbonate (DEPC)-water was used for control (test peptides were dissolved in sterile DEPC-water). After wash with Dulbecco's phosphate buffered saline (DPBS) twice, samples on coverslips were fixed with 4% paraformaldehyde for 10 minutes and stained with PKC-θ (Cat. SC-212), PKC-θ-Phosphor-T538, PKC-β2, PKC-α, Importin α, or Importin 8 primary Antibody respectively and conjugated Alexa-488 secondary Antibody. Cell nucleus was stained with anti-fade 2-(4-amidinophenyl)-6-indolecarbamidine dihydrochloride (DAPI). When samples were dried overnight, Nikon fluorescence microscopy was used to take photos. ImageJ software was used for densimetric analysis. Fn/c was calculated using the formula: Fn/c=(nuclear density-background density)/(cytoplasmic density-background density).

[3] = tested on: cancer stem cell markers (CSV, LSD1p, PKC-θ and PDL1); test: Expression of cancer stem cell markers in MDA-MB-231 xenograft cells (confocal microscopy, TNFI/TCFI); assay type: in vivo, Balb-c nude mice; settings: importinib4759 40 mg/kg, docetaxel 4 mg/kg
Experimental: The effect of Importinib4759 on the expression of cancer stem cell markers in MDA-MB-231 xenograft breast cancer cells from Balb-c nude mice was evaluated using confocal laser scanning microscopy.
MDA-MB-231 xenograft breast cancer cells from Balb-c nude mice were treated and prepared as per the method of Example 7. Test compounds included control (saline), docetaxel (4 mg/kg), importinib4759 (40 mg/kg; synthesized in accordance with Example 1) or a combination of importinib4759 (40 mg/kg) and docetaxel (4 mg/kg). The single cell suspensions were fixed with 3.7% formaldehyde and permeabilized with 2% Triton-X-100 and were then probed with primary mouse antibodies to CSV, primary goat antibodies to PDL1 and primary rabbit antibodies to phosphorylated LSD1 (LSD1p; lysine-specific histone demethylase 1A) or PKC-θ followed by the corresponding secondary antibody conjugated to anti mouse Alexa-Fluor 568, anti-goat Alexa-Fluor 633 or anti-rabbit Alexa-Fluor 488. The cell nucleus was stained with anti-fade DAPI. TNFI (Total Nuclear Fluorescence Intensity) or TCFI (Total Cytoplasmic Fluorescence Intensity) values were calculated for at least 20 individual cells per sample. Data shown represent the mean±SE grouped into time point of collection.

MCF7 cells = test: CD44hiCD24lo cancer stem cell formation in MCF-IM model (FACS); assay type: cell-based, human; settings: importinib4759 5004 and 100 μM, importinib4759_O1 2504 and 50 μM, 24 hr before PMA 60 hr, p=0.0079 relative to control
Experimental: as §1, with “5×10^4 MCF7” for “5×10^4 MDA-MB-231”, “for 24” for “for 48”, “before stimulation with PMA for 60 hr. Samples” for “before samples”, “2% heat inactivated foetal bovine serum (HI-FBS).” for “2% HI-FBS.”, “staining were” for “staining was”

[4] = tested on: M1 macrophage markers (LSD1p, CCR7 and CD38); test: Expression of M1 macrophage markers in MDA-MB-231 xenograft cells (confocal microscopy, TNFI/TCFI); assay type: in vivo, Balb-c nude mice; settings: importinib4759 40 mg/kg, docetaxel 4 mg/kg
Experimental: (§2) The effect of Importinib4759 on the expression of cancer associated fibroblast (CAF) and macrophage in MDA-MB-231 xenograft breast cancer cells from Balb-c nude mice was evaluated using confocal laser scanning microscopy. MDA-MB-231 xenograft breast cancer cells from Balb-c nude mice were treated and prepared as per the method of Example 7. Test compounds included control (saline), docetaxel (4 mg/kg), importinib4759 (40 mg/kg; synthesized in accordance with Example 1) or a combination of importinib4759 (40 mg/kg) and docetaxel (4 mg/kg). The single cell suspensions were fixed with 3.7% formaldehyde and permeabilized with 2% Triton-X-100 and were then probed with a set of CAF signature antibodies [primary mouse antibodies to FAP (fibroblast activation protein), primary goat antibodies to CCL2 (chemokine (C-C motif) ligand 2) and primary rabbit antibodies to LSD1 (lysine-specific histone demethylase 1A; a target of PKC-θ)] or M1 macrophage markers [primary mouse antibodies to CCR[…] chemokine receptor type 7), primary goat antibodies to CD38 (cluster of differentiation 38) and primary rabbit antibodies to LSD1p (a target of PKC-θ)], followed by the corresponding secondary antibody conjugated to anti mouse Alexa-Fluor 568, anti-goat Alexa-Fluor 633 or anti-rabbit Alexa-Fluor 488. […] TNFI or TCFI values were calculated for at least 20 individual cells per sample. […]

[5] = tested on: CAF markers (FAP, LSD1 and CCL2); test: Expression of CAF markers in MDA-MB-231 xenograft cells (confocal microscopy, TNFI/TCFI); assay type: in vivo, Balb-c nude mice; settings: importinib4759 40 mg/kg, docetaxel 4 mg/kg
Experimental: as §2

T1 sequence (Q04759 whole entry, canonical isoform): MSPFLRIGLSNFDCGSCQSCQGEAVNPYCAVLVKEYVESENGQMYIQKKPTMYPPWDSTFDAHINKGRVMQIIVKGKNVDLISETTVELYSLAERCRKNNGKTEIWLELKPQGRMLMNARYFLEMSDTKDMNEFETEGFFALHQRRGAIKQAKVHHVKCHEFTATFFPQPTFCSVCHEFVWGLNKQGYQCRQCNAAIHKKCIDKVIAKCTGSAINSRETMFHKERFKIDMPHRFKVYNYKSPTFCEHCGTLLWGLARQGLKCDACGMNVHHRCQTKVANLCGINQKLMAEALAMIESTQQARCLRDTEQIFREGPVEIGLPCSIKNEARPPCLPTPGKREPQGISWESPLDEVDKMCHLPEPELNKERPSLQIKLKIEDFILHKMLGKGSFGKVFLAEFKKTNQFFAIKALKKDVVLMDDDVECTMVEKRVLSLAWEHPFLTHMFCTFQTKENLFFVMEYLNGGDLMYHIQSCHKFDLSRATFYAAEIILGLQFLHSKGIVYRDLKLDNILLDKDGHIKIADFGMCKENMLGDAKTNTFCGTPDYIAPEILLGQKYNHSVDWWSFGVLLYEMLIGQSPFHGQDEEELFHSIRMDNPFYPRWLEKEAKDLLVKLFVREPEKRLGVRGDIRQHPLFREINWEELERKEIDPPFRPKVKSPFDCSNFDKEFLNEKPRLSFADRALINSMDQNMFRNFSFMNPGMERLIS

| Molecule | effect on nuclear localization of PKC-θ (PKC-θ [1]) | expression of cancer stem cell markers (CSV, LSD1p, PKC-θ, PDL1) [3] | expression of M1 macrophage markers (LSD1p, CCR7, CD38; docetaxel result stated for CCR7 and CD38) [4] | expression of CAF markers (FAP, LSD1np, CCL2) [5] | also measured |
| --- | --- | --- | --- | --- | --- |
| RKEIDPPFRPKVK-OH (Myristoyl-RKEIDPPFRPKVK-OH; SMILES CCCCCCCCCCCCCC(=O)N[C@@H](CCCNC(=N)N)C(=O)N[C@@H](CCCCN)C(=O)N[C@@H](CCC(=O)O)C(=O)N[C@H](C(=O)N[C@@H](CC(=O)O)C(=O)N1CCC[C@H]1C(=O)N1CCC[C@H]1C(=O)N[C@@H](Cc1ccccc1)C(=O)N[C@@H](CCCNC(=N)N)C(=O)N1CCC[C@H]1C(=O)N[C@@H](CCCCN)C(=O)N[C@H](C(=O)N[C@@H](CCCCN)C(=O)O)C(C)C)[C@@H](C)CC) [Importinib4759, tested N-myristoylated] | – | significantly abrogated expression of cancer stem cell markers | augmented | abrogated expression of CAF markers | reduction of CD44hiCD24lo cancer stem cells (MDA-MB-231 cells): Significant reduction of cancer stem cells; cancer stem cell (CD44highCD24low) population in tumor grafts (MDA-MB-231 xenograft; FACS of resected tumor grafts after five weeks): significantly abrogating the cancer stem cell population; tumor volume in comparison to the control or docetaxel treatment alone (MDA-MB-231 xenograft; intraperitoneal, peptide 8, 40 and 60 mg/kg, docetaxel 4 mg/kg, five weeks): abrogating tumor volume; tumor volume over time (MDA-MB-231 xenograft; intraperitoneal, peptide 8, 40 and 60 mg/kg, docetaxel 4 mg/kg, five weeks, n=5): significantly reduced tumor volume over time; blocking of nuclear PKC-θ (nuclear translocation) (PKC-θ [2]): capable of blocking nuclear PKC-θ; cancer stem cell (CD44hiCD24lo) formation (MCF7 cells): inhibited |
| CC(=O)O[C@@]12CO[C@@H]1C[C@H](O)[C@@]1(C)C(=O)[C@H](O)C3=C(C)[C@@H](OC(=O)[C@H](O)[C@@H](NC(=O)OC(C)(C)C)c4ccccc4)C[C@@](O)([C@@H](OC(=O)c4ccccc4)[C@H]21)C3(C)C [docetaxel, reference compound] | – | increased expression of cancer stem cell markers | unaffected | significantly increased the expression of CAF markers | – |

Continued, in another order:

| effect on nuclear localization of PKC-θ (PKC-θ [1]) | Molecule | expression of cancer stem cell markers (CSV, LSD1p, PKC-θ, PDL1) [3] | expression of M1 macrophage markers (LSD1p, CCR7, CD38; docetaxel result stated for CCR7 and CD38) [4] | expression of CAF markers (FAP, LSD1np, CCL2) [5] | also measured |
| --- | --- | --- | --- | --- | --- |
| had no effect | RKEIQPPYKPKAR (Myristoyl-RKEIQPPYKPKAR) [nPKC-β1] | – | – | – | – |
| had no effect | KKIKPPFKPRIKTKR (Myristoyl-KKIKPPFKPRIKTKR) [nPKC-ε] | – | – | – | – |
| had no effect | KRRLEPPFRPKVK [nPKC-δ] | – | – | – | – |
